Reference: patent publication US9758538B2, “Pyrimidine derivatives” (PFIZER INC., priority 2015, dated 2017)

target: truncated PI3Kα (p110α/iSH2 p85α), PI3KA_Act (Homo sapiens (Human), UniProt P42336); assay: PI3Kα biochemical kinase assay, fluorescence polarization format (PI3KA_Act); settings: 0.5 nM p110α/iSH2 p85, 1 mM ATP, 30 μM PIP2, 15-min preincubation; Morrison equation fit; read-out: PI3KA_Act Ki
Method in brief: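 Enzyme: His-tagged p110α/p85α niSH2 complex from Sf21 baculovirus expression, IMAC-purified, tag cleaved, then SEC. Reactions ran 30 min at room temperature, stopped with 10 mM EDTA pH 8 (final), and were read by fluorescence polarization.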

truncated PI3Kα (p110α/iSH2 p85α), PI3KA_Act, sequence (P42336 whole entry, the tested form may be a part): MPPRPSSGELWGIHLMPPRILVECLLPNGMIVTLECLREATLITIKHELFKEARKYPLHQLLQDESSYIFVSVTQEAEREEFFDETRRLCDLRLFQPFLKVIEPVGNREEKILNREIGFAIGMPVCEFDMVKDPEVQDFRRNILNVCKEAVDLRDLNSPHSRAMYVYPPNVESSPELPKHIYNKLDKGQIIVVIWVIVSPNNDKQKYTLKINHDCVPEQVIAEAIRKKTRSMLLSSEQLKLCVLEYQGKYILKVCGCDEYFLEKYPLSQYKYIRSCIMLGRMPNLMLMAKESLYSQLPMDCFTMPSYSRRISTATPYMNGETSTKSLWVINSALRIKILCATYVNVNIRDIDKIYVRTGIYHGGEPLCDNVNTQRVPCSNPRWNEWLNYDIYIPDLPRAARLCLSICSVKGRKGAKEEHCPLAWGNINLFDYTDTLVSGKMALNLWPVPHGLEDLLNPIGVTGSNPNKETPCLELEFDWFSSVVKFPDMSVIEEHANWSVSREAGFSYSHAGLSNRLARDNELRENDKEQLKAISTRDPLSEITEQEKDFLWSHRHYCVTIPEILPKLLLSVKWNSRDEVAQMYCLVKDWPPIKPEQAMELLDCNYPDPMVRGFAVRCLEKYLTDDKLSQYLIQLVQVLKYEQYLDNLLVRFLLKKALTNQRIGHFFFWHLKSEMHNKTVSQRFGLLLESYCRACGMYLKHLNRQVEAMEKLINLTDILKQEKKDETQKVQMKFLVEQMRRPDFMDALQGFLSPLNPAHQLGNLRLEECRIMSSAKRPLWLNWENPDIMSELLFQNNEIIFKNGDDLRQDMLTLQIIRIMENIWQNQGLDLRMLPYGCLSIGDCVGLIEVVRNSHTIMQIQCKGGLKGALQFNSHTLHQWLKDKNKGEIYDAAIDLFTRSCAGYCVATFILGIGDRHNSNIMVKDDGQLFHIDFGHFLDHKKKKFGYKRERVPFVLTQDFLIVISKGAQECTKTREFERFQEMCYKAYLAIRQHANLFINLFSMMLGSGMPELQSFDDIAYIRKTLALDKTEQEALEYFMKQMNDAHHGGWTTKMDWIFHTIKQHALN

SMILES	Ki
CCOC(=O)N1CC[C@](CO)(Nc2cc(-c3cnc(C)c(C#N)c3)nc(N3CCOCC3)n2)C1 [Example 128, ethyl (3S)-3-{[6-(5-cyano-6-methylpyridin-3-yl)-2-(morpholin-4-yl)pyrimidin-4-yl]amino}-3-(hydroxymethyl)pyrrolidine-1-carboxylate]	110 nM
CCOC(=O)N1CC[C@](CO)(Nc2cc(-c3cnc(C)nc3)nc(N3CCOCC3)n2)C1 [Example 130, ethyl (3S)-3-(hydroxymethyl)-3-{[2′-methyl-2-(morpholin-4-yl)-4,5′-bipyrimidin-6-yl]amino}pyrrolidine-1-carboxylate]	0.83 nM
Nc1ncc(-c2cc(N[C@@]3(CO)CCN(C(=O)NCC(F)F)C3)nc(N3CCOCC3)n2)cn1 [Example 131, (3S)-3-{[2′-amino-2-(morpholin-4-yl)-4,5′-bipyrimidin-6-yl]amino}-N-(2,2-difluoroethyl)-3-(hydroxymethyl)pyrrolidine-1-carboxamide]	0.205 nM
Nc1ncc(-c2nc(N3CCOCC3)nc(N[C@@]3(CO)CCN(C(=O)NCC(F)F)C3)c2F)cn1 [Example 132, (3S)-3-{[2′-amino-5-fluoro-2-(morpholin-4-yl)-4,5′-bipyrimidin-6-yl]amino}-N-(2,2-difluoroethyl)-3-(hydroxymethyl)pyrrolidine-1-carboxamide]	0.097 nM
Cc1ncc(-c2cc(N[C@@]3(CO)CCN(C(=O)C4(F)CC4)C3)nc(N3CCOCC3)n2)cn1 [Example 136, (1-fluorocyclopropyl)[(3S)-3-(hydroxymethyl)-3-{[2′-methyl-2-(morpholin-4-yl)-4,5′-bipyrimidin-6-yl]amino}pyrrolidin-1-yl]methanone]	0.739 nM
Nc1ncc(-c2nc(N3CCOCC3)nc(N[C@@]3(CO)CCN(C(=O)OCCF)C3)c2F)cn1 [Example 139, 2-fluoroethyl (3S)-3-{[2′-amino-5-fluoro-2-(morpholin-4-yl)-4,5′-bipyrimidin-6-yl]amino}-3-(hydroxymethyl)pyrrolidine-1-carboxylate]	< 0.018 nM
Nc1ncc(-c2cc(N[C@@]3(CO)CCCN(C(=O)OCC(F)F)C3)nc(N3CCOCC3)n2)cn1 [Example 141, 2,2-difluoroethyl (3S)-3-{[2′-amino-2-(morpholin-4-yl)-4,5′-bipyrimidin-6-yl]amino}-3-(hydroxymethyl)piperidine-1-carboxylate]	0.043 nM
CCC(=O)N1CCC[C@](CO)(Nc2nc(N3CCOCC3)nc(-c3cnc(N)nc3)c2F)C1 [Example 146, 1-[(3S)-3-{[2′-amino-5-fluoro-2-(morpholin-4-yl)-4,5′-bipyrimidin-6-yl]amino}-3-(hydroxymethyl)piperidin-1-yl]propan-1-one]	0.237 nM
CCC(=O)N1CCC[C@@](CO)(Nc2nc(N3CCOCC3)nc(-c3cnc(N)nc3)c2F)C1 [Example 147, 1-[(3R)-3-{[2′-amino-5-fluoro-2-(morpholin-4-yl)-4,5′-bipyrimidin-6-yl]amino}-3-(hydroxymethyl)piperidin-1-yl]propan-1-one]	1.9 nM
Nc1ncc(-c2nc(N3CCOCC3)nc(N[C@@]3(CO)CCCN(C(=O)OCC(F)F)C3)c2F)cn1 [Example 149, 2,2-difluoroethyl (3S)-3-{[2′-amino-5-fluoro-2-(morpholin-4-yl)-4,5′-bipyrimidin-6-yl]amino}-3-(hydroxymethyl)piperidine-1-carboxylate]	< 0.018 nM
COCC(=O)N1CCC[C@](CO)(Nc2nc(N3CCOCC3)nc(-c3cnc(N)nc3)c2F)C1 [Example 150, 1-[(3S)-3-{[2′-amino-5-fluoro-2-(morpholin-4-yl)-4,5′-bipyrimidin-6-yl]amino}-3-(hydroxymethyl)piperidin-1-yl]-2-methoxyethanone]	0.8 nM
CC(=O)N1CCC[C@@](CO)(Nc2nc(N3CCOCC3)nc(-c3cnc(N)nc3)c2F)C1 [Example 152, 1-[(3R)-3-{[2′-amino-5-fluoro-2-(morpholin-4-yl)-4,5′-bipyrimidin-6-yl]amino}-3-(hydroxymethyl)piperidin-1-yl]ethanone]	1.65 nM

The next lines start with the values.

Ki	SMILES
< 0.018 nM	C[C@H]1COCCN1c1nc(N[C@@]2(CO)CCN(C(=O)C3CC3)C2)c(F)c(-c2cnc(N)nc2)n1 [Example 120, [(3S)-3-({2′-amino-5-fluoro-2-[(3S)-3-methylmorpholin-4-yl]-4,5′-bipyrimidin-6-yl}amino)-3-(hydroxymethyl)pyrrolidin-1-yl](cyclopropyl)methanone]
0.15 nM	CCOC(=O)N1CC[C@](COC)(Nc2cc(-c3cnc(N)nc3)nc(N3CCOCC3)n2)C1 [Example 121, ethyl (3S)-3-{[2′-amino-2-(morpholin-4-yl)-4,5′-bipyrimidin-6-yl]amino}-3-(methoxymethyl)pyrrolidine-1-carboxylate]
21.5 nM	COC[C@]1(Nc2cc(-c3cnc(N)nc3)nc(N3CCOCC3)n2)CCNC1 [Example 122, N˜6˜-[(3S)-3-(methoxymethyl)pyrrolidin-3-yl]-2-(morpholin-4-yl)-4,5′-bipyrimidine-2′,6-diamine]
1.7 nM	CC(C)(C)OC(=O)N1CCCC(CO)(Nc2cc(-c3cnc(N)nc3)nc(N3CCOCC3)n2)C1 (stereo not drawn) [Example 123, tert-butyl 3-{[2′-amino-2-(morpholin-4-yl)-4,5′-bipyrimidin-6-yl]amino}-3-(hydroxymethyl)piperidine-1-carboxylate]
0.046 nM	C[C@H]1COCCN1c1nc(N[C@@]2(CF)CCN(C(=O)OC(C)(C)C)C2)cc(-c2cnc(N)nc2)n1 [Example 124, tert-butyl (3S)-3-({2′-amino-2-[(3S)-3-methylmorpholin-4-yl]-4,5′-bipyrimidin-6-yl}amino)-3-(fluoromethyl)pyrrolidine-1-carboxylate]
118 nM	Cc1ncc(-c2cc(N[C@@]3(CO)CCN(C(=O)OC(C)(C)C)C3)nc(N3CCOCC3)n2)cc1C#N [Example 125, tert-butyl (3S)-3-{[6-(5-cyano-6-methylpyridin-3-yl)-2-(morpholin-4-yl)pyrimidin-4-yl]amino}-3-(hydroxymethyl)pyrrolidine-1-carboxylate]
1.92 nM	Cc1ncc(-c2cc(N[C@@]3(CO)CCN(C(=O)OC(C)(C)C)C3)nc(N3CCOCC3)n2)cn1 [Example 126, tert-butyl (3S)-3-(hydroxymethyl)-3-{[2′-methyl-2-(morpholin-4-yl)-4,5′-bipyrimidin-6-yl]amino}pyrrolidine-1-carboxylate]
19 nM	Cc1ncc(-c2cc(N[C@@]3(CO)CCN(C(=O)OC(C)(C)C)C3)nc(N3CCOCC3)n2)cc1F [Example 127, tert-butyl (3S)-3-{[6-(5-fluoro-6-methylpyridin-3-yl)-2-(morpholin-4-yl)pyrimidin-4-yl]amino}-3-(hydroxymethyl)pyrrolidine-1-carboxylate]
8.29 nM	CCOC(=O)N1CC[C@](CO)(Nc2cc(-c3cnc(C)c(F)c3)nc(N3CCOCC3)n2)C1 [Example 129, ethyl (3S)-3-{[6-(5-fluoro-6-methylpyridin-3-yl)-2-(morpholin-4-yl)pyrimidin-4-yl]amino}-3-(hydroxymethyl)pyrrolidine-1-carboxylate]
0.795 nM	Nc1ncc(-c2cc(N[C@@]3(CO)CCN(C(=O)NCC(F)(F)F)C3)nc(N3CCOCC3)n2)cn1 [Example 133, (3S)-3-{[2′-amino-2-(morpholin-4-yl)-4,5′-bipyrimidin-6-yl]amino}-3-(hydroxymethyl)-N-(2,2,2-trifluoroethyl)pyrrolidine-1-carboxamide]
48.7 nM	Nc1ncc(-c2nc(N3CCOCC3)nc(N[C@@]3(CO)CCNC3)c2F)cn1 [Example 137, [(3S)-3-{[2′-amino-5-fluoro-2-(morpholin-4-yl)-4,5′-bipyrimidin-6-yl]amino}pyrrolidin-3-yl]methanol]
0.557 nM	Cc1ncc(-c2cc(N[C@@]3(CO)CCN(C(=O)OCC(F)F)C3)nc(N3CCOCC3)n2)cn1 [Example 138, 2,2-difluoroethyl (3S)-3-(hydroxymethyl)-3-{[2′-methyl-2-(morpholin-4-yl)-4,5′-bipyrimidin-6-yl]amino}pyrrolidine-1-carboxylate]
13.9 nM	Nc1ncc(-c2nc(N3CCOCC3)nc(N[C@]3(CO)CCCNC3)c2F)cn1 [Example 144, [(3R)-3-{[2′-amino-5-fluoro-2-(morpholin-4-yl)-4,5′-bipyrimidin-6-yl]amino}piperidin-3-yl]methanol]
2.53 nM	Nc1ncc(-c2nc(N3CCOCC3)nc(N[C@@]3(CO)CCCNC3)c2F)cn1 [Example 145, [(3S)-3-{[2′-amino-5-fluoro-2-(morpholin-4-yl)-4,5′-bipyrimidin-6-yl]amino}piperidin-3-yl]methanol]
2.96 nM	Nc1ncc(-c2nc(N3CCOCC3)nc(N[C@]3(CO)CCCN(C(=O)OCC(F)F)C3)c2F)cn1 [Example 148, 2,2-difluoroethyl (3R)-3-{[2′-amino-5-fluoro-2-(morpholin-4-yl)-4,5′-bipyrimidin-6-yl]amino}-3-(hydroxymethyl)piperidine-1-carboxylate]
1.82 nM	COCC(=O)N1CCC[C@@](CO)(Nc2nc(N3CCOCC3)nc(-c3cnc(N)nc3)c2F)C1 [Example 151, 1-[(3R)-3-{[2′-amino-5-fluoro-2-(morpholin-4-yl)-4,5′-bipyrimidin-6-yl]amino}-3-(hydroxymethyl)piperidin-1-yl]-2-methoxyethanone]

same assay, conditions: PI3KA_Act Ki (nM), 0.5 nM p110α/iSH2 p85, 1 mM ATP, 30 μM PIP2, 15-min preincubation; Morrison equation fit

SMILES	Ki
C[C@H]1COCCN1c1nc(N[C@@]2(CO)CCN(C(=O)OCC(F)F)C2)c(F)c(-c2cnc(N)nc2)n1 [Example 119, 2,2-difluoroethyl (3S)-3-({2′-amino-5-fluoro-2-[(3S)-3-methylmorpholin-4-yl]-4,5′-bipyrimidin-6-yl}amino)-3-(hydroxymethyl)pyrrolidine-1-carboxylate]	< 0.018 nM
Nc1ncc(-c2nc(N3CCOCC3)nc(N[C@@]3(CO)CCN(C(=O)OCC(F)(F)F)C3)c2F)cn1 [Example 140, 2,2,2-trifluoroethyl (3S)-3-{[2′-amino-5-fluoro-2-(morpholin-4-yl)-4,5′-bipyrimidin-6-yl]amino}-3-(hydroxymethyl)pyrrolidine-1-carboxylate]	< 0.018 nM
